Measurements: patent publication US6207709A, “N-substituted-2-amino-4-phenyl-4-oxo-butanoic acid compounds having kynurenine-3-hydroxy base inhibitory activity” (Pharmacia & Upjohn S.p.A., priority 1996, dated 2001)

How the values were obtained:
kynurenine-3-hydroxylase = biological target: T1, kynurenine-3-hydroxylase (Rattus norvegicus, UniProt O88867); test: Kynurenine-3-hydroxylase assay in the rat brain (homogenate); assay type: biochemical; settings: L-kynurenine 50 μM, 60 min incubation, pH 7.5, read-out: IC 50, enzyme inhibition (rat brain)
T1 construct: evaluated in rat brain homogenate; from tissue; host or cells: rat brain homogenate (washed 12000 x g pellet)
T1 sequence (O88867 whole entry): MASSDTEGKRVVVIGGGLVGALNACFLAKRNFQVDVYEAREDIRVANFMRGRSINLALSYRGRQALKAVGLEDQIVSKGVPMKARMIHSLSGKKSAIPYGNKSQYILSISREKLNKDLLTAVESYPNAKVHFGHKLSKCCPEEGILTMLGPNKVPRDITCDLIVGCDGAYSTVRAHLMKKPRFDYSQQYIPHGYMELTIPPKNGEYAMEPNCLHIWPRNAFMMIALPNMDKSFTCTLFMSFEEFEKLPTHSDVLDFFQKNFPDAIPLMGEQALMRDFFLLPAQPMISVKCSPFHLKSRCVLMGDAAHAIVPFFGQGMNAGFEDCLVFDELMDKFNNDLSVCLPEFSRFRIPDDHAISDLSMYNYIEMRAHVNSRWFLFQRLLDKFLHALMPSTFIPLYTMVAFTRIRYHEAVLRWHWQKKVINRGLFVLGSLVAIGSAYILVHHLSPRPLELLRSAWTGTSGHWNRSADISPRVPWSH
Method: (A) Kynurenine-3-hydroxylase assay in the rat brain
Brain was homogenized in ice-cold 0.32 M sucrose and centrifuged at 12000×g for 30 min at 4° C. The pellet was washed three times with 0.32 M sucrose by centrifugation and suspended in 0.14 M KCl in 20 mM K-phosphate buffer at pH 7 (1 g tissue in 2 ml buffer).
The reaction mixture contained: 75 μl of suspended homogenate; 100 μl of substrate solution containing 50 mM K-phosphate buffer pH 7.5, 2 mM MgCl2, 0.4 mM NADPH and 50 μM L-kynurenine (final concentration): 25 μl of different concentrations of inhibitor solutions). The reaction was stopped by addition of 200 μl of 1 M HClO4 after 60 min incubation. L-3-hydroxykynurenine formed was quantified by HPLC with coulometric detection at a working voltage of +0.2 V. The column was a 10 cm C18 reversed phase (3 μm. The mobile phase consisted of 950 ml distilled water, 20 ml acetonitrile, 9 ml triethylamine, 5.9 ml phosphoric acid, 100 mg sodium EDTA and 1.5 g heptanesulfonic acid. The flow rate was 1 ml/min.

[1] = system: ionotropic excitatory aminoacid receptors; settings: preferentially acting at the glycine co-agonist site of the NMDA receptor; cited from earlier work
[2] = system: N-methyl-D-aspartate (NMDA) receptor; settings: cited from earlier work
neuronal cell cultures = settings: relatively low QUIN concentrations; prolonged period of time or in combination with glutamate; cited from earlier work
[3] = cited from earlier work

SMILES: O=C(CC(NC(=O)C(F)(F)F)C(=O)O)c1ccc(Cl)c(Cl)c1 (racemic) [FCE 29256, (R,S)-N-trifluoroacetyl-2-amino-4-oxo-4-(3',4'-dichlorophenyl)butanoic acid]
- IC50 (kynurenine-3-hydroxylase): 140 nM

SMILES: O=C(CC(NC(=O)C(F)(F)F)C(=O)O)c1ccc(F)c(F)c1 (racemic) [FCE 29434, (R,S)-N-trifluoroacetyl-2-amino-4-oxo-4-(3',4'-difluorophenyl)butanoic acid]
- IC50 (kynurenine-3-hydroxylase): 270 nM

SMILES: O=C(C[C@H](NC(=O)C(F)(F)F)C(=O)O)c1ccc(Cl)c(Cl)c1 [FCE 29435, (S)-N-trifluoroacetyl-2-amino-4-oxo-4-(3',4'-dichlorophenyl)butanoic acid]
- IC50 (kynurenine-3-hydroxylase): 240 nM

SMILES: O=C(O)c1cc(=O)c2ccccc2[nH]1 [KYNA, kynurenic acid]
- antagonism at ionotropic excitatory aminoacid receptors (in words) [1]: broad spectrum antagonist

SMILES: O=C(O)c1cccnc1C(=O)O [QUIN, quinolinic acid]
- agonism at NMDA receptor (in words) [2]: highly selective agonist
- neurotoxicity in neuronal cell cultures (in words) (neuronal cell cultures): neurotoxic
- effect in vivo (in words) [3]: produce convulsions and axon sparing lesions
